Experimental data from PubChem BioAssay AID1259407 (Chemical Carcinogenesis Research Information System (CCRIS), 2018).
Calls of active or inactive are those of the source. No rule for the calls is given here.

System: CCRIS mutagenicity, Ames/micronucleus/aberration tests
Test: CCRIS mutagenicity studies
[1] = Test System: AMES SALMONELLA TYPHIMURIUM, Strain/Indicator: TA98, Metabolic Activation: NONE, Method: STANDARD PLATE
[2] = Test System: AMES SALMONELLA TYPHIMURIUM, Strain/Indicator: TA98, Metabolic Activation: RAT, LIVER, S-9, AROCLOR 1254, Method: STANDARD PLATE
[3] = Test System: AMES SALMONELLA TYPHIMURIUM, Strain/Indicator: TA100, Metabolic Activation: NONE, Method: STANDARD PLATE
[4] = Test System: AMES SALMONELLA TYPHIMURIUM, Strain/Indicator: TA100, Metabolic Activation: RAT, LIVER, S-9, AROCLOR 1254, Method: STANDARD PLATE
[5] = Test System: AMES SALMONELLA TYPHIMURIUM, Strain/Indicator: TA1535, Metabolic Activation: NONE, Method: STANDARD PLATE
[6] = Test System: AMES SALMONELLA TYPHIMURIUM, Strain/Indicator: TA1535, Metabolic Activation: RAT, LIVER, S-9, AROCLOR 1254, Method: STANDARD PLATE
[7] = Test System: AMES SALMONELLA TYPHIMURIUM, Strain/Indicator: TA1537, Metabolic Activation: NONE, Method: STANDARD PLATE
[8] = Test System: AMES SALMONELLA TYPHIMURIUM, Strain/Indicator: TA1537, Metabolic Activation: RAT, LIVER, S-9, AROCLOR 1254, Method: STANDARD PLATE
[9] = Test System: AMES SALMONELLA TYPHIMURIUM, Strain/Indicator: TA1538, Metabolic Activation: NONE, Method: STANDARD PLATE
[10] = Test System: AMES SALMONELLA TYPHIMURIUM, Strain/Indicator: TA1538, Metabolic Activation: RAT, LIVER, S-9, AROCLOR 1254, Method: STANDARD PLATE

With `C=CCc1ccc(O)c(OC)c1` the mutagenic call (End Point: IN VITRO CHROMOSOMAL ABERRATIONS, Test System: CHINESE HAMSTER OVARY CELLS, Metabolic Activation: NONE) was “inactive; negative”, the mutagenic call (End Point: IN VITRO CHROMOSOMAL ABERRATIONS, Test System: CHINESE HAMSTER OVARY CELLS, Metabolic Activation: RAT, LIVER, S-9, AROCLOR 1254) was “active; positive” and the mutagenic call (End Point: IN VITRO CHROMOSOMAL ABERRATIONS, Test System: CHO-WBL CELLS, Metabolic Activation: RAT, LIVER, S-9, PHENOBARBITAL AND BETA-NAPHTHOFLAVONE) was “active; positive (at 24 hr)”. The mutagenic call (End Point: IN VITRO CHROMOSOMAL ABERRATIONS, Test System: SYRIAN HAMSTER EMBRYO (SHE) CELLS, Metabolic Activation: NONE) was “active; positive (structural changes)”, the mutagenic call (End Point: IN VITRO CHROMOSOMAL ABERRATIONS, Test System: SYRIAN HAMSTER EMBRYO (SHE) CELLS, Metabolic Activation: RAT, LIVER, S-9) was “active; positive (structural changes)” and the mutagenic call (End Point: IN VIVO MICRONUCLEUS, Test System: BONE MARROW POLYCHROMATIC ERYTHROCYTES, Species: MOUSE, Strain/Sex: DDY/MALE, Route: IP) was “inactive; negative”. For the same compound, the mutagenic call (Test System: AMES SALMONELLA TYPHIMURIUM, Strain/Indicator: TA97, Metabolic Activation: NONE, Method: PREINCUBATION (120 MIN)) was “inactive; negative”, the mutagenic call (Test System: AMES SALMONELLA TYPHIMURIUM, Strain/Indicator: TA97, Metabolic Activation: S-9, Method: PREINCUBATION (120 MIN)) was “inactive; negative” and the mutagenic call (Test System: AMES SALMONELLA TYPHIMURIUM, Strain/Indicator: TA98, Metabolic Activation: HAMSTER, LIVER, S-9, AROCLOR 1254, Method: PREINCUBATION) was “inactive; negative”. For the same compound, the mutagenic call (Test System: AMES SALMONELLA TYPHIMURIUM, Strain/Indicator: TA98, Metabolic Activation: NONE, Method: PREINCUBATION) was “inactive; negative”, the mutagenic call (Test System: AMES SALMONELLA TYPHIMURIUM, Strain/Indicator: TA98, Metabolic Activation: NONE, Method: PREINCUBATION (120 MIN)) was “inactive; negative” and the mutagenic call [1] was “inactive; negative”. The mutagenic call (Test System: AMES SALMONELLA TYPHIMURIUM, Strain/Indicator: TA98, Metabolic Activation: RAT, LIVER, S-9, AROCLOR 1254, Method: PREINCUBATION) was “inactive; negative”, the mutagenic call [2] was “inactive; negative” and the mutagenic call (Test System: AMES SALMONELLA TYPHIMURIUM, Strain/Indicator: TA98, Metabolic Activation: S-9, Method: PREINCUBATION (120 MIN)) was “inactive; negative”. The mutagenic call (Test System: AMES SALMONELLA TYPHIMURIUM, Strain/Indicator: TA98, Metabolic Activation: S-9, Method: STANDARD PLATE) was “inactive; negative”, the mutagenic call (Test System: AMES SALMONELLA TYPHIMURIUM, Strain/Indicator: TA100, Metabolic Activation: HAMSTER, LIVER, S-9, AROCLOR 1254, Method: PREINCUBATION) was “inactive; negative” and the mutagenic call (Test System: AMES SALMONELLA TYPHIMURIUM, Strain/Indicator: TA100, Metabolic Activation: NONE, Method: PREINCUBATION) was “inactive; negative”. For the same compound, the mutagenic call (Test System: AMES SALMONELLA TYPHIMURIUM, Strain/Indicator: TA100, Metabolic Activation: NONE, Method: PREINCUBATION (120 MIN)) was “inactive; negative”, the mutagenic call [3] was “inactive; negative” and the mutagenic call (Test System: AMES SALMONELLA TYPHIMURIUM, Strain/Indicator: TA100, Metabolic Activation: RAT, LIVER, S-9, AROCLOR 1254, Method: PREINCUBATION) was “inactive; negative”. The mutagenic call [4] was “inactive; negative”, the mutagenic call (Test System: AMES SALMONELLA TYPHIMURIUM, Strain/Indicator: TA100, Metabolic Activation: S-9, Method: PREINCUBATION (120 MIN)) was “inactive; negative” and the mutagenic call (Test System: AMES SALMONELLA TYPHIMURIUM, Strain/Indicator: TA100, Metabolic Activation: S-9, Method: STANDARD PLATE) was “inactive; negative”. For the same compound, the mutagenic call (Test System: AMES SALMONELLA TYPHIMURIUM, Strain/Indicator: TA1535, Metabolic Activation: HAMSTER, LIVER, S-9, AROCLOR 1254, Method: PREINCUBATION) was “inactive; negative”, the mutagenic call (Test System: AMES SALMONELLA TYPHIMURIUM, Strain/Indicator: TA1535, Metabolic Activation: NONE, Method: PREINCUBATION) was “inactive; negative” and the mutagenic call [5] was “inactive; negative”. For the same compound, the mutagenic call (Test System: AMES SALMONELLA TYPHIMURIUM, Strain/Indicator: TA1535, Metabolic Activation: PAPS, Method: STANDARD PLATE) was “inactive; negative”, the mutagenic call (Test System: AMES SALMONELLA TYPHIMURIUM, Strain/Indicator: TA1535, Metabolic Activation: RAT, LIVER, S-9, AROCLOR 1254, PAPS, Method: STANDARD PLATE) was “active; positive” and the mutagenic call (Test System: AMES SALMONELLA TYPHIMURIUM, Strain/Indicator: TA1535, Metabolic Activation: RAT, LIVER, S-9, AROCLOR 1254, Method: PREINCUBATION) was “inactive; negative”. The mutagenic call [6] was “inactive; negative”, the mutagenic call (Test System: AMES SALMONELLA TYPHIMURIUM, Strain/Indicator: TA1537, Metabolic Activation: HAMSTER, LIVER, S-9, AROCLOR 1254, Method: PREINCUBATION) was “inactive; negative” and the mutagenic call (Test System: AMES SALMONELLA TYPHIMURIUM, Strain/Indicator: TA1537, Metabolic Activation: NONE, Method: PREINCUBATION) was “inactive; negative”. For the same compound, the mutagenic call [7] was “inactive; negative”, the mutagenic call (Test System: AMES SALMONELLA TYPHIMURIUM, Strain/Indicator: TA1537, Metabolic Activation: RAT, LIVER, S-9, AROCLOR 1254, Method: PREINCUBATION) was “inactive; negative” and the mutagenic call [8] was “inactive; negative”. The mutagenic call [9] was “inactive; negative”, the mutagenic call [10] was “inactive; negative” and the mutagenic call (Test System: MOUSE LYMPHOMA, Strain/Indicator: L5178Y (TK+/TK-), Metabolic Activation: NONE, Method: MICROWELL) was “active; positive”. For the same compound, the mutagenic call (Test System: MOUSE LYMPHOMA, Strain/Indicator: L5178Y (TK+/TK-), Metabolic Activation: S-9, Method: MICROWELL) was “active; positive”.

For `COP(=S)(OC)Oc1ccc(N=O)c(C)c1`, the mutagenic call [1] was “active; positive”, the mutagenic call [2] was “active; positive” and the mutagenic call [3] was “active; positive”. The mutagenic call [4] was “active; positive”.

With `Cc1nnc(NS(=O)(=O)c2ccc(N)cc2)s1` the mutagenic call (Test System: AMES SALMONELLA TYPHIMURIUM, Strain/Indicator: TA98, Metabolic Activation: HAMSTER, LIVER, S-9, AROCLOR 1254, Method: STANDARD PLATE) was “inactive; negative”, the mutagenic call [1] was “inactive; negative” and the mutagenic call [2] was “inactive; negative”. The mutagenic call (Test System: AMES SALMONELLA TYPHIMURIUM, Strain/Indicator: TA100, Metabolic Activation: HAMSTER, LIVER, S-9, AROCLOR 1254, Method: STANDARD PLATE) was “inactive; negative”, the mutagenic call [3] was “inactive; negative” and the mutagenic call [4] was “inactive; negative”. The mutagenic call (Test System: AMES SALMONELLA TYPHIMURIUM, Strain/Indicator: TA1535, Metabolic Activation: HAMSTER, LIVER, S-9, AROCLOR 1254, Method: STANDARD PLATE) was “inactive; negative”, the mutagenic call [5] was “inactive; negative” and the mutagenic call [6] was “inactive; negative”. The mutagenic call (Test System: AMES SALMONELLA TYPHIMURIUM, Strain/Indicator: TA1537, Metabolic Activation: HAMSTER, LIVER, S-9, AROCLOR 1254, Method: STANDARD PLATE) was “inactive; negative”, the mutagenic call [7] was “inactive; negative” and the mutagenic call [8] was “inactive; negative”. The mutagenic call (Test System: AMES SALMONELLA TYPHIMURIUM, Strain/Indicator: TA1538, Metabolic Activation: HAMSTER, LIVER, S-9, AROCLOR 1254, Method: STANDARD PLATE) was “inactive; negative”, the mutagenic call [9] was “inactive; negative” and the mutagenic call [10] was “inactive; negative”. The mutagenic call (Test System: MOUSE LYMPHOMA, Strain/Indicator: L5178Y (TK+/TK-), Metabolic Activation: NONE, Method: SUSPENSION/PLATE) was “inactive; negative. reevaluation of results: negative” and the mutagenic call (Test System: MOUSE LYMPHOMA, Strain/Indicator: L5178Y (TK+/TK-), Metabolic Activation: RAT, LIVER, S-9, AROCLOR 1254, Method: SUSPENSION/PLATE) was “inactive; negative. reevaluation of results: equivocal”.
